Test results: US20250296971A1, “GASTRIC INHIBITORY PEPTIDE RECEPTOR LIGANDS” (priority 2021, published 2025)
Read-outs that look alike come from different tables or passages of the source. *1 amine or outer side, *2 acyl side, *3 side chain or, on linkers, in order; H or OH if unused. Where a SMILES comes first, the peptide text is derived from it. Bridges are numbered along the chain shown (N, C = ends). [ ]: non-standard residue; d: D form. Trp(5-Cl) = N[C@@H](Cc1c[nH]c2ccc(Cl)cc12)C(=O)O; Pyridine(2,6-diCH2) = c1cc(C[*:1])nc(C[*:2])c1; Oic = O=C(O)[C@@H]1C[C@@H]2CCCC[C@@H]2N1; Pro(4R-NH2) = N[C@H]1CN[C@H](C(=O)O)C1; 1Nal = N[C@@H](Cc1cccc2ccccc12)C(=O)O; mXylylene = c1cc(C[*:1])cc(C[*:2])c1; X7 = c1cc(CSCCN[*:2])cc(C[*:1])c1; Hyp = O=C(O)[C@@H]1C[C@@H](O)CN1; Suc = O=C(CCC(=O)[*:2])[*:1]; Tle = CC(C)(C)[C@H](N)C(=O)O; Pip = O=C(O)[C@@H]1CCCCN1; Thp = NC1(C(=O)O)CCOCC1; Aib = CC(C)(N)C(=O)O

Biological target: T1, GIPR (CHO-K1-hGIPR cells) (Homo sapiens, UniProt P48546)
T1 construct: host or cells: CHO-K1
T1 sequence (P48546 22-466): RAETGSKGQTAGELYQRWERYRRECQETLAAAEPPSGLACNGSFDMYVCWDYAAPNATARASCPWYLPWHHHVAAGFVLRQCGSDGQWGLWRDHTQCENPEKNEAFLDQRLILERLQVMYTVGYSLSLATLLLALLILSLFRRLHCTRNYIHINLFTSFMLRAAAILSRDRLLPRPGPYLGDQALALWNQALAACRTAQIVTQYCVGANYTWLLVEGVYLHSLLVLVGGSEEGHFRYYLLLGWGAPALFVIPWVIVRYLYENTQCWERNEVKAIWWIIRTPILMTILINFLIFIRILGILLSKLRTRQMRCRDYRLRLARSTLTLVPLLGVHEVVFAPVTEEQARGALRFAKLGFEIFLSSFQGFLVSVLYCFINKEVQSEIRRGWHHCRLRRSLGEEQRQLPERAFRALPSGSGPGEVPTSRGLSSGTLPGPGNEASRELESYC
Test: FACS binding assay
Conditions: read-out: pIC50 Category (converted)
In short: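 Peptide binding read by flow cytometry as APC-channel median fluorescence, fitted with a four-parameter logistic to yield EC50 or IC50. Cells were hGIPR-transfected CHO-K1 in PBS with 1% FCS, detected with 1 μg/mL APC-streptavidin, 30 min on ice.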

[1] = competition with 20 nM GIP-057, 4° C., 1 hour
[2] = competition with 20 nM GIP-057, 4° C. for 1 hour

Compound | IC50 [1] | IC50 [2]
CC[C@H](C)[C@@H]1NC(=O)[C@H](CC(C)C)NC(=O)[C@H](Cc2c[nH]c3ccccc23)NC(=O)[C@@H](NC(=O)[C@@H](CC(C)C)NC(=O)[C@H](CCC(=O)O)NC(=O)[C@@H]2C[C@@H](O)CN2C(=O)[C@H](Cc2c[nH]c3ccc(Cl)cc23)NC(=O)[C@H](Cc2c[nH]c3ccccc23)NC(=O)[C@H](CC(=O)O)NC(C)=O)CSCc2cccc(n2)CSC[C@@H](C(N)=O)NC1=O [GIP-234, Ac-Asp-Trp-5Clw-Hyp-Glu-leu-[Cys(2Lut)-Trp-Leu-Ile-Cys]-NH2] (Ac-DW[Trp(5-Cl)][Hyp]E[dL]CWLIC-NH2; linker 7-11 via Pyridine(2,6-diCH2)) | < 0.01 µM | –
CC[C@H](C)[C@@H]1NC(=O)[C@H](CC(C)C)NC(=O)[C@H](CCC(=O)O)NC(=O)[C@@H](NC(=O)[C@@H](CC(C)C)NC(=O)[C@H](CCC(=O)O)NC(=O)[C@@H]2C[C@@H](O)CN2C(=O)[C@H](Cc2c[nH]c3ccc(Cl)cc23)NC(=O)[C@H](Cc2c[nH]c3ccccc23)NC(=O)[C@H](CC(=O)O)NC(C)=O)CSCc2cccc(n2)CSC[C@@H](C(N)=O)NC1=O [GIP-235, Ac-Asp-Trp-5Clw-Hyp-Glu-leu-[Cys(2Lut)-Glu-Leu-Ile-Cys]-NH2] (Ac-DW[Trp(5-Cl)][Hyp]E[dL]CELIC-NH2; linker 7-11 via Pyridine(2,6-diCH2)) | < 0.01 µM | –
CC[C@H](C)[C@@H]1NC(=O)[C@H](CO)NC(=O)C2(CCOCC2)NC(=O)[C@@H](NC(=O)[C@@H](CC(C)C)NC(=O)[C@H](CCC(=O)O)NC(=O)[C@@H]2C[C@@H](O)CN2C(=O)[C@H](Cc2c[nH]c3ccc(Cl)cc23)NC(=O)[C@H](Cc2c[nH]c3ccccc23)NC(=O)[C@H](CC(=O)O)NC(C)=O)CSCc2cccc(n2)CSC[C@@H](C(N)=O)NC1=O [GIP-236, Ac-Asp-Trp-5Clw-Hyp-Glu-leu-[Cys(2Lut)-Thp-Ser-Ile-Cys]-NH2] (Ac-DW[Trp(5-Cl)][Hyp]E[dL]C[Thp]SIC-NH2; linker 7-11 via Pyridine(2,6-diCH2)) | < 0.01 µM | –
CC(=O)N[C@@H](CC(=O)O)C(=O)N[C@@H](Cc1c[nH]c2ccccc12)C(=O)N[C@@H](Cc1c[nH]c2ccc(Cl)cc12)C(=O)N1C[C@H](O)C[C@H]1C(=O)N[C@@H](CCC(=O)O)C(=O)N[C@H](CC(C)C)C(=O)N[C@H]1CSCc2cccc(n2)CSC[C@@H](C(N)=O)NC(=O)[C@H](CC(C)C)NC(=O)[C@H](CC(C)C)NC(=O)C2(CCOCC2)NC1=O [GIP-237, Ac-Asp-Trp-5Clw-Hyp-Glu-leu-[Cys(2Lut)-Thp-Leu-Leu-Cys]-NH2] (Ac-DW[Trp(5-Cl)][Hyp]E[dL]C[Thp]LLC-NH2; linker 7-11 via Pyridine(2,6-diCH2)) | < 0.01 µM | –
CC(=O)N[C@@H](CC(=O)O)C(=O)N[C@@H](Cc1c[nH]c2ccccc12)C(=O)N[C@@H](Cc1c[nH]c2ccc(Cl)cc12)C(=O)N1C[C@H](O)C[C@H]1C(=O)N[C@@H](CCC(=O)O)C(=O)N[C@H](CC(C)C)C(=O)N[C@H]1CSCc2cccc(n2)CSC[C@@H](C(N)=O)NC(=O)[C@H](C(C)(C)C)NC(=O)[C@H](CC(C)C)NC(=O)C2(CCOCC2)NC1=O [GIP-238, Ac-Asp-Trp-5Clw-Hyp-Glu-leu-[Cys(2Lut)-Thp-Leu-Tle-Cys]-NH2] (Ac-DW[Trp(5-Cl)][Hyp]E[dL]C[Thp]L[Tle]C-NH2; linker 7-11 via Pyridine(2,6-diCH2)) | < 0.01 µM | –
CC[C@H](C)[C@@H]1NC(=O)[C@H](CC(C)C)NC(=O)C2(CCOCC2)NC(=O)[C@@H](NC(=O)[C@@H](CC(C)C)NC(=O)[C@H](CCC(=O)O)NC(=O)[C@@H]2C[C@@H](N)CN2C(=O)[C@H](Cc2c[nH]c3ccc(Cl)cc23)NC(=O)[C@H](Cc2c[nH]c3ccccc23)NC(=O)[C@H](CC(=O)O)NC(C)=O)CSCc2cccc(n2)CSC[C@@H](C(N)=O)NC1=O [GIP-239, Ac-Asp-Trp-5Clw-Tap-Glu-leu-[Cys(2Lut)-Thp-Leu-Ile-Cys]-NH2] (Ac-DW[Trp(5-Cl)][Pro(4R-NH2)]E[dL]C[Thp]LIC-NH2; linker 7-11 via Pyridine(2,6-diCH2)) | < 0.01 µM | –
CC[C@H](C)[C@@H]1NC(=O)[C@H](CC(C)C)NC(=O)[C@H](CCCCN)NC(=O)[C@@H](NC(=O)[C@H](CC(C)C)NC(=O)[C@H](CCC(=O)O)NC(=O)[C@@H]2CCCN2C(=O)[C@H](Cc2c[nH]c3ccccc23)NC(=O)[C@H](Cc2c[nH]c3ccccc23)NC(=O)[C@H](CC(=O)O)NC(=O)[C@H](Cc2ccc(O)cc2)NC(=O)[C@@H](N)CCSC)CSCc2cccc(c2)CSC[C@@H](C(N)=O)NC1=O [GIP-243] (H-MYDWWPELCKLIC-NH2; linker 9-13 via mXylylene) | 0.01 to 0.0794 µM | –
CC[C@H](C)[C@@H]1NC(=O)[C@H](CC(C)C)NC(=O)[C@H](C)NC(=O)[C@@H](NC(=O)[C@H](CC(C)C)NC(=O)[C@H](CCC(=O)O)NC(=O)[C@@H]2CCCN2C(=O)[C@H](Cc2c[nH]c3ccccc23)NC(=O)[C@H](Cc2c[nH]c3ccccc23)NC(=O)[C@H](CC(=O)O)NC(=O)[C@H](C)NC(=O)[C@@H](N)CCSC)CSCc2cccc(c2)CSC[C@@H](C(N)=O)NC1=O [GIP-249] (H-MADWWPELCALIC-NH2; linker 9-13 via mXylylene) | – | 0.01 to 0.0794 µM
CC[C@H](C)[C@@H]1NC(=O)[C@H](CC(C)C)NC(=O)[C@@H](C)NC(=O)[C@@H](NC(=O)[C@H](CC(C)C)NC(=O)[C@H](CCC(=O)O)NC(=O)[C@@H]2CCCN2C(=O)[C@H](Cc2c[nH]c3ccccc23)NC(=O)[C@H](Cc2c[nH]c3ccccc23)NC(=O)[C@H](CC(=O)O)NC(C)=O)CSCc2cccc(c2)CSCCNC1=O [GIP-250, Ac-Asp-Trp-Trp-Pro-Glu-Leu-[Cys(3MeBn)-ala-Leu-Ile-AET]] (Ac-DWWPELC[dA]LI; linker 7-C via X7) | – | 0.01 to 0.0794 µM
CC[C@H](C)[C@@H]1NC(=O)[C@H](CC(C)C)NC(=O)C(C)(C)NC(=O)[C@@H](NC(=O)[C@H](CC(C)C)NC(=O)[C@H](CCC(=O)O)NC(=O)[C@@H]2CCCN2C(=O)[C@H](Cc2c[nH]c3ccccc23)NC(=O)[C@H](Cc2c[nH]c3ccccc23)NC(=O)[C@H](CC(=O)O)NC(C)=O)CSCc2cccc(c2)CSCCNC1=O [GIP-251, Ac-Asp-Trp-Tip-Pro-Glu-Leu-[Cys(3MeBn)-Aib-Leu-Ile-AET]] (Ac-DWWPELC[Aib]LI; linker 7-C via X7) | – | 0.01 to 0.0794 µM
CC[C@H](C)[C@@H]1NC(=O)[C@H](CC(C)C)NC(=O)C(C)(C)NC(=O)[C@@H](NC(=O)[C@H](CC(C)C)NC(=O)[C@H](CCC(=O)O)NC(=O)[C@@H]2C[C@@H]3CCCC[C@@H]3N2C(=O)[C@H](Cc2cccc3ccccc23)NC(=O)[C@H](Cc2c[nH]c3ccccc23)NC(=O)[C@H](CC(=O)O)NC(C)=O)CSCc2cccc(c2)CSC[C@@H](C(N)=O)NC1=O [GIP-252, Ac-Asp-Trp-1Ni-Pip-Glu-Leu-[Cys(3MeBn)-Aib-Leu-Ile-Cys]-NH2] (Ac-DW[1Nal][Oic]ELC[Aib]LIC-NH2; linker 7-11 via mXylylene) | – | 0.01 to 0.0794 µM
CC[C@H](C)[C@@H]1NC(=O)[C@H](CC(C)C)NC(=O)C(C)(C)NC(=O)[C@@H](NC(=O)[C@H](CC(C)C)NC(=O)[C@H](CCC(=O)O)NC(=O)[C@@H]2CCCCN2C(=O)[C@H](Cc2cccc3ccccc23)NC(=O)[C@H](Cc2c[nH]c3ccccc23)NC(=O)[C@H](CC(=O)O)NC(C)=O)CSCc2cccc(c2)CSC[C@@H](C(N)=O)NC1=O [GIP-253, Ac-Asp-Trp-1Ni-Pip-Glu-Leu-[Cys(3MeBn)-Aib-Leu-Ile-Cys]-NH2] (Ac-DW[1Nal][Pip]ELC[Aib]LIC-NH2; linker 7-11 via mXylylene) | – | 0.01 to 0.0794 µM
CC[C@H](C)[C@@H]1NC(=O)[C@H](CC(C)C)NC(=O)[C@H](C)NC(=O)[C@@H](NC(=O)[C@H](CC(C)C)NC(=O)[C@H](CCC(=O)O)NC(=O)[C@@H]2CCCN2C(=O)[C@H](Cc2c[nH]c3ccccc23)NC(=O)[C@H](Cc2c[nH]c3ccccc23)NC(=O)[C@H](CC(=O)O)NC(=O)[C@H](Cc2ccc(O)cc2)NC(=O)[C@@H](N)CCSC)CSCc2cccc(c2)CSC[C@@H](C(N)=O)NC1=O [GIP-254] (H-MYDWWPELCALIC-NH2; linker 9-13 via mXylylene) | – | 0.01 to 0.0794 µM
CC[C@H](C)[C@@H]1NC(=O)[C@H](CC(C)C)NC(=O)[C@H](C)NC(=O)[C@@H](NC(=O)[C@H](CC(C)C)NC(=O)[C@H](CCC(=O)O)NC(=O)[C@@H]2CCCN2C(=O)[C@H](Cc2c[nH]c3ccccc23)NC(=O)[C@H](Cc2c[nH]c3ccccc23)NC(=O)CCC(=O)O)CSCc2cccc(c2)CSC[C@@H](C(N)=O)NC1=O [GIP-255, HO-Succinyl-Trp-Trp-Pro-Glu-Leu-[Cys(3MeBn)-Ala-Leu-Ile-Cys]-NH2] (Suc-WWPELCALIC-NH2; linker 6-10 via mXylylene) | – | 0.01 to 0.0794 µM
CC[C@H](C)[C@@H]1NC(=O)[C@H](CC(C)C)NC(=O)[C@H](C)NC(=O)[C@@H](NC(=O)[C@H](CC(C)C)NC(=O)[C@H](CCC(=O)O)NC(=O)[C@@H]2CCCN2C(=O)[C@H](Cc2c[nH]c3ccccc23)NC(=O)[C@H](Cc2c[nH]c3ccccc23)NC(=O)CCC(=O)O)CSCc2cccc(c2)CSCCNC1=O [GIP-256, HO-Succinyl-Trp-Trp-Pro-Glu-Leu-[Cys(3MeBn)-Ala-Leu-Ile-AET]] (Suc-WWPELCALI; linker 6-C via X7) | – | 0.01 to 0.0794 µM
CC[C@H](C)[C@@H]1NC(=O)[C@H](CC(C)C)NC(=O)[C@H](C)NC(=O)[C@@H](NC(=O)[C@H](CC(C)C)NC(=O)[C@H](CCC(=O)O)NC(=O)[C@@H]2CCCN2C(=O)[C@H](Cc2c[nH]c3ccccc23)NC(=O)[C@H](Cc2c[nH]c3ccccc23)NC(=O)CCC(=O)O)CSCc2cccc(n2)CSC[C@@H](C(N)=O)NC1=O [GIP-257, HO-Succinyl-Trp-Trp-Pro-Glu-Leu-[Cys(2Lut)-Ala-Leu-Ile-Cys]-NH2] (Suc-WWPELCALIC-NH2; linker 6-10 via Pyridine(2,6-diCH2)) | – | 0.01 to 0.0794 µM
